According to PMC8301170, “New Benzimidazothiazolone Derivatives as Tyrosinase Inhibitors with Potential Anti-Melanogenesis and Reactive Oxygen Species Scavenging Activities” (Antioxidants, 2021):
“Also recorded” adds a separate entry of the source. Blank lines part the entries; values can stand above or below the compound they belong to.

Assays:
mushroom tyrosinase = mushroom tyrosinase (Agaricus bisporus, UniProt C7FF04); experiment: Enzyme kinetic analysis of mushroom tyrosinase (Lineweaver–Burk and Dixon plots); type: biochemical; settings: L-tyrosine substrate 0.5–4 mM
mushroom tyrosinase, sequence (C7FF04 1-392): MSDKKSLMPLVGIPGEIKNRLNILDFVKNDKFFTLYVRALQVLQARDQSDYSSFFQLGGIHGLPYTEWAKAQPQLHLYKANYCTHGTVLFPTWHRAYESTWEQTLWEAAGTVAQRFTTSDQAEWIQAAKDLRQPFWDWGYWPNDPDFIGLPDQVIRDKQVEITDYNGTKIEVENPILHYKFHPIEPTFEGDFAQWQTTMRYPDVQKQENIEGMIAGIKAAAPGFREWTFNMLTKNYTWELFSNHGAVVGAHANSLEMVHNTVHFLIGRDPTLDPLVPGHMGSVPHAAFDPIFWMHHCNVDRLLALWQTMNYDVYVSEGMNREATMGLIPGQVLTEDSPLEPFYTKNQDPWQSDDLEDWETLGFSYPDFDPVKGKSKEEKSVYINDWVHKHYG
Method: Lineweaver–Burk and Dixon plots were used to calculate the inhibition mode and inhibition constant (Ki) against mushroom tyrosinase. Kinetic parameters for various concentrations of the L-tyrosine substrate (0.5–4 mM) and inhibitors (0.4, 2, and 10 µM for compound 1; and 2, 4, and 8 µM for compound 2; and 2.5, 5, and 10 µM for compound 3, respectively) were achieved.
To elucidate the type of enzymatic inhibition, a kinetic analysis was accomplished at several concentrations of the L-tyrosine substrate and inhibitors (1–3), according to the Lineweaver–Burk and Dixon plot methods (Table 3 and Figure 2). […] Furthermore, the Dixon plot is a graphical method [plot of 1/enzyme velocity (1/V) against inhibitor concentration (I)] used to determine the type of enzymatic inhibition and the dissociation or inhibition constant (Kic) for the enzyme-inhibitor complex.
Figure 2 Enzymatic kinetics study of compounds 1–3 against tyrosinase. Lineweaver–Burk plots for the inhibition of mushroom tyrosinase of compounds 1 (A), 2 (B), and 3 (C). Dixon plots for tyrosinase inhibition of compounds 1 (D), 2 (E), and 3 (F) using L-tyrosine as the substrate.

[1] = ROS scavenging activity, DCFDA assay, cell-free in vitro; settings: SIN-1-induced oxidative stress
Method: (§1) ROS scavenging activity was determined according to the method reported by Ali et al. and Lebel and Bondy. Briefly, 2′,7′-Dichlorodihydrofluorescein-diacetate (DCFH-DA) (2.5 mM, Molecular Probes, Eugene, OR, USA) mixed with esterase (1.5 units/mL), was incubated at 37 °C for 30 min and placed on ice in the dark until immediately prior to the study. Phosphate buffer (50 mM) at pH 7.4 was used. To determine intracellular ROS scavenging activity, B16F10 cells (1 × 10^4/well) were seeded in black 96-well plates. After 24 h, the cells were incubated with DCFH-DA (20 µM) and SIN-1 ([…]) for 30 min to induce ROS generation. The fluorescence intensity of oxidized DCFH was measured using a fluorescent microplate reader at excitation and emission wavelengths of 485 and 530 nm, respectively (Tecan, Männedorf, Switzerland). Trolox was used as the positive control.
ROS may regulate melanogenesis in melanoma cells. The principle of the intracellular ROS assay is that DCF-DA spreads through the cell membrane and is enzymatically hydrolyzed to […] by esterase; DCFH then responses with ROS to yield DCF [56]. The ROS scavenging activity of compounds 1–3 was investigated in vitro by using fluorescence probes, (DCF-DA) for ROS. SIN-1 is used as an NO donor [57, 58]. […] . […] The importance of catechol moiety (3,4-dihydroxy group) for ROS scavenging activity was reported in previous studies in the literature.
Figure 5 Reactive oxygen species (ROS) scavenging activity of compound 2. The inhibitory effect of compound 2 on ROS production was evaluated. A DCFDA assay was performed to determine ROS levels. The ROS scavenger trolox was used as the positive control. The scavenging activity of compound 2 on oxidative stress induced by 10 µM SIN-1 was estimated in cell-free in vitro (A). B16F10 cells were pre-treated with compound 2 and trolox for 3 h and further treated with 10 µM SIN-1 (B).

B16F10 cells [2] = experiment: Melanin contents in α-MSH and IBMX-induced B16F10 cells; settings: α-MSH and IBMX 48 h, 5, 10 and 20 µM
Text: All results were standardized to the total protein concentration of the cell lysates using the bicinchoninic acid (BCA) reagent (Thermo Fisher Scientific, Waltham, MA, USA).

B16F10 cells [3] = experiment: Intracellular ROS levels in SIN-1-treated B16F10 cells; type: cell-based, mouse; settings: pre-treated 3 h, then SIN-1
Method: as §1
ROS may regulate melanogenesis in melanoma cells. The principle of the intracellular ROS assay is that DCF-DA spreads through the cell membrane and is enzymatically hydrolyzed to […] by esterase; DCFH then responses with ROS to yield DCF [56]. The ROS scavenging activity of compounds 1–3 was investigated in vitro by using fluorescence probes, (DCF-DA) for ROS. SIN-1 is used as an NO donor [57, 58]. […]
Figure 5 Reactive oxygen species (ROS) scavenging activity of compound 2. The inhibitory effect of compound 2 on ROS production was evaluated. […]

[4] = system: tyrosinase, p-CREB, p-PKA, MITF, p-JNK, p-ERK, p-p38; experiment: Western blot analysis of melanogenic signaling proteins in α-MSH- and IBMX-induced B16F10 cells; type: cell-based, mouse
Method: Lysed samples were boiled for 10 min with gel-loading buffer (0.125 M Tris-HCl, pH 6.8, 4% SDS, 10% 2-mercaptoethanol and 0.2% bromophenol blue) at a volume ratio of 1:1. Total protein equivalents were separated with SDS-PAGE using 9–10% acrylamide gels and then transferred onto polyvinylidene fluoride membranes (Millipore, Burlington, MA, USA) at 25 V for 10 min in a semi-dry transfer system (Bio-Rad Laboratories, Hercules, CA, USA). The membranes were immediately placed in blocking buffer (5% non-fat milk) in 10 mM Tris (pH 7.5), 100 mM NaCl, and 0.1% Tween-20. The blots were blocked at room temperature for 1 h. The membranes were incubated with appropriate specific primary antibodies at 4 °C overnight and then treated with horseradish peroxidase-conjugated anti-mouse, anti-rabbit or anti-goat antibodies (1:5000) at 25 °C for 1 h (Santa Cruz Biotechnology, Dallas, TX, USA). Protein bands were visualized using the SuperSignal® West Pico Chemiluminescent Substrate kit (Advansta, San Jose, CA, USA) and Davinch-Chemi^TM (Davinch-K, Seoul, Korea).
It is important to determine whether the inhibition of melanin synthesis by compound 2 is related to melanogenesis signaling and gene expression. […] MITF, a leucine zipper transcription factor, activates the expression of multiple genes encoding enzymes involved in the conversion of tyrosine into melanin, resulting in increased levels of these melanin-producing proteins. […] The skin is site of oxidative stress due to exposure to daylight and environmental oxidizing pollutants. It is known that ROS stimulates α-MSH- and IBMX-induced production in melanoma cells leading to melanogenesis by upregulating MITF, a transcription factor that induces tyrosinase gene expression. […] However, the levels of phosphorylated p38 were not affected by treatment with compound 2. In our study, both p-JNK and p-ERK were decreased by compound 2.
(§2) Figure 7 Effects of compound 2 on melanogenic proteins and mRNA levels in α-MSH- and IBMX-induced B16F10 cells. […] The expression levels of tyrosinase, p-CREB, p-PKA, p-JNK, p-ERK, p-p38, and β-actin were determined with Western blotting in the cytosolic fraction. β-actin was used as the loading control (A,B,D,E). The expression levels of MITF and TFIIB were determined with Western blotting in the nuclear fraction. TFIIB was used as the loading control (C). Relative mRNA levels of the melanogenic genes MITF, Tyrosinase, Trp1, and Trp2 in the cells were quantified using real-time qPCR and normalized to the GAPDH mRNA level (F).

[5] = system: MITF, tyrosinase, TRP1, TRP2 mRNA; experiment: Real-time qPCR of melanogenic genes in α-MSH- and IBMX-induced B16F10 cells; type: cell-based, mouse; settings: normalized to GAPDH
Method: RNA from cell samples was purified using the RiboEx Total RNA solution (GeneAll Biotechnology, Seoul, Korea) according to the manufacturer’s instructions. Total RNA (2 µg) treated with ribonuclease (RNase) free deoxyribonuclease (DNase) was reverse-transcribed using Hyperscript^TM One-Step RT-PCR (GeneAll Biotechnology, Seoul, Korea). Real-time qPCR was performed using the SensiFAST^TM SYBR® No-ROX dye (Bioline, London, UK.) and a CFX Connect System (Bio-Rad Laboratories, Hercules, CA, USA). Relative gene expression was calculated with the standard curve method using GAPDH as the internal control. Ct values were obtained with qPCR. Three independent tests were performed.
The effects of compound 2 on the expression of mRNA melanogenic factors were evaluated in α-MSH- and IBMX-induced B16F10 cells. […] The mRNA levels of tyrosinase, TRP1, TRP2, and MITF were quantified with real-time qPCR (Figure 7F).
as §2, with “TFIIB was used as the loading control (C). Relative mRNA levels of the melanogenic genes MITF, Tyrosinase, Trp1, and Trp2 in the cells were quantified using real-time qPCR and normalized to the GAPDH mRNA level (F).” left out

B16F10 cells [6] = experiment: Cell viability, EZ-Cytox assay; type: cell-based, mouse; settings: 5–200 µM, 48 h, vs vehicle control
Method: The mouse melanoma cell line B16F10 was acquired from American Type Culture Collection (ATCC®; CCL-6475™) (Manassas, VA, USA) and cultured in DMEM, supplemented with 10% fetal bovine serum (FBS) and 1% penicillin–streptomycin, at 37 °C in a humidified 5% CO2 atmosphere. Cell viability assays were performed with minor modifications, as previously reported. Cell viability was evaluated using the EZ-Cytox assay kit (DaeilLab, Seoul, Korea). The compounds were dissolved in DMSO for the in vitro experiments.
The EZ-Cytox assay was used to estimate cell viability. […] Consequently, 20 µM sample concentrations of compounds 1–3 and trolox were used for further experiments.
Figure 4 Effects of compounds 1–3 and trolox on the viability of B16F10 cells. Cells were incubated with different concentrations (5–200 µM) of compound 1 (A), 2 (B), 3 (C), and trolox (D) for 48 h, and cell viability was determined using EZ-Cytox assay. *** p < 0.001 vs. DMSO-treated.

[7] = cytosolic fraction, 5, 10 and 20 µM

Inhibition Type (mushroom tyrosinase): Competitive
IC50 [1]: ≥ 50 µM
melting point: ≥ 300 °C
Compound: O=c1/c(=C/c2ccc(O)cc2)sc2nc3ccccc3n12 [Compound 1]
effect on melanin contents (B16F10 cells [2]): reduced the melanin content at 20 µM

Inhibition Type (mushroom tyrosinase): Competitive
IC50 [1]: 2.36 ± 0.48 µM
melting point: ≥ 300 °C
Compound: O=c1/c(=C/c2ccc(O)c(O)c2)sc2nc3ccccc3n12 [Compound 2]
SIN-1-induced ROS generation in cells (B16F10 cells [3]): dose-dependently scavenged ROS; also recorded: reduced SIN-1-induced ROS generation in a dose-dependent manner
expression of tyrosinase, phosphorylated CREB and PKA [4, 7]: decreased their expression on these proteins in a dose-dependent manner
levels of phosphorylated JNK and ERK [4, 7]: decreased the levels of phosphorylated JNK and ERK in a concentration-dependent manner
levels of phosphorylated p38 [4, 7]: not affected
MITF levels ([4]; nuclear fraction, 5, 10 and 20 µM): significantly suppressed MITF levels
mRNA levels of tyrosinase, TRP1, TRP2 and MITF [5]: significantly inhibited the expression

Inhibition Type (mushroom tyrosinase): Competitive
IC50 [1]: ≥ 50 µM
melting point: 263.7 to 268.3 °C
Compound: O=c1/c(=C/c2ccc(O)cc2O)sc2nc3ccccc3n12 [Compound 3]

melting point: 262.3 to 264 °C
Compound: COc1cc(/C=c2\sc3nc4ccccc4n3c2=O)ccc1O [Compound 4]

melting point: 210.7 °C
Compound: CCOc1cc(/C=c2\sc3nc4ccccc4n3c2=O)ccc1O [Compound 5]

melting point: 249.6 to 252.1 °C
Compound: COc1ccc(/C=c2\sc3nc4ccccc4n3c2=O)cc1O [Compound 6]

melting point: 239.5 to 241.8 °C
Compound: COc1ccc(/C=c2\sc3nc4ccccc4n3c2=O)cc1 [Compound 7]

melting point: 236.7 to 236.9 °C
Compound: COc1ccc(/C=c2\sc3nc4ccccc4n3c2=O)cc1OC [Compound 8]

melting point: 250.1 to 257.5 °C
Compound: COc1ccc(/C=c2\sc3nc4ccccc4n3c2=O)c(OC)c1 [Compound 9]

melting point: 244.2 to 245.2 °C
Compound: O=c1/c(=C/c2ccccc2O)sc2nc3ccccc3n12 [Compound 10]

melting point: 215.1 °C
Compound: COc1cc(/C=c2\sc3nc4ccccc4n3c2=O)cc(OC)c1OC [Compound 11]

melting point: 261.9 to 269.1 °C
Compound: COc1cc(/C=c2\sc3nc4ccccc4n3c2=O)cc(OC)c1O [Compound 12]

melting point: 293.7 to 297 °C
Compound: O=c1/c(=C/c2ccc(O)c(Br)c2)sc2nc3ccccc3n12 [Compound 13]

IC50 [1]: 13.2 ± 0.73 µM
Compound: Cc1c(C)c2c(c(C)c1O)CCC(C)(C(=O)O)O2 (stereo not shown) [Trolox, reference compound]
cell viability (B16F10 cells [6]): did not significantly affect cell viability at concentrations up to 20 µM
